From patent US6534282B2, “Detection of hypertension using immunoreactive metabolic products” (priority 1999, dated 2003)
Values belong to the molecule of their own block, whether it stands above or below them.

Tests used:
[1] = tested on: anti-14,15-DHET IgG; assay: Specificity of the 14,15-DHET competitive ELISA (eicosanoid panel); format: binding, goat; details: for cross-reaction with anti-14,15-DHET (in words) / cross-reaction with anti-14,15-DHET: 14,15-DHET ELISA; for cross-reactivity relative to 14,15-DHET: competition with 14,15-DHET for anti-14,15-DHET IgG in ELISA
Protocol: Synthetic 14, 15- or 8,9-DHETs were coupled to KLH using dicyclohexylcarbodiimide as previously described (25). The conjugate was used to immunize a goat and antibody titers were determined by ELISA using DHET-conjugated bovine serum albumin (BSA).
High-binding microplates were coated with protein G-purified IgG suspended in 1M carbonate, pH 9.0, (1 μg/well; 200 μl/well final volume) and then covered with paraflim. After overnight incubation at room temperature, the wells were gently washed five times with tris buffered saline (TBS), pH 7.5, containing 0.1% tween. Non-specific sites were blocked by the addition of 0.2 ml of 5% (w/v) nonfat dry milk in TBS. After two hours of incubation at room temperature, they were washed three times with TBS-tween. One μg/well of purified IgG was sufficient for quantitation of 0.5 to 100 pg/well of 14,15- or 8,9-DHETs. Samples and standards (150 μL) were added and the plates incubated for 20 minutes, after which 15 ng of the DHET-HRP conjugate was added in 50 μL of TBS. Following incubation for one hour to permit competitive binding to bound antibody, unbound material was removed by thorough washing of the wells with TBS-tween, and 150 μL of a colorimetric substrate for HRP [3,3′,5,5′ tetramethylbenzidine (TMB) and hydrogen peroxide] (Sigma Co.) was added. The plate is then incubated for 20 minutes, the reaction stopped by addition of 75 μL of 1N H2SO4, and the absorbance at 450 nm was determined using a microtiter plate reader. Under these assay conditions, the amount of color in a well is inversely proportional to the initial concentration of the sample or a standard ligand.
The specificity of the 14,15-DHET ELISA was investigated using authentic DHET and a panel of eicosanoids (Table 5) which, based on their structure, might be anticipated to compete with 14,15-DHET for binding to antibodies against 14,15-DHET. […] There was a slight cross-reaction with 8,9- and 11,12-DHET (3.3% for both).
A listing of the panel of eicosanoids used to analyze the specificity of the 14,15-DHET ELISA. These eicosanoids were selected based on the similarity of their structure to 14,15-DHET, as being anticipated to potentially compete with 14,15-DHET for binding to anti-14,15-DHET and thus interfere with such assays.

[2] = tested on: CYP2C23; assay: Western blot of hepatic microsomes for CYP2C23; format: in vivo, rat; details: after 4 days of treatment, 10 mg/kg/day i.p., FIG. 4
Protocol: (§1) Male and female Sprague-Dawley (SD) rats (160-200 g) were purchased from Charles River Laboratories (Wilmington, Mass.) and housed in a controlled environment and fed standard laboratory chow for at least 3 days before use.
SDS-PAGE was carried out on 10% acrylamide gel. The separated proteins were electroblotted onto cellulose membrane and Western blot analyses were carried out using alkaline phosphatase system as previously described (29). Visualization of P450 bands was accomplished by incubation with a mixture of 5-bromo4-chloro-3-indolylphosphatate p-toluidine and nitrobluetetrazolium.

[3] = tested on: AA epoxygenase; assay: AA oxygenase activity assay of hepatic microsomes using 14C AA, from treated rats; format: in vivo, rat; details: hepatic microsomes of rats treated i.p. 10 mg/kg/d for 4 days; incubation 10 min
Protocol: as §1
Microsomes were prepared from rat livers and kidneys as described previously (27,28). Microsomes were stored at −80° C. in 50 mM Tris acetate buffer, pH 7.4, containing 1 mM EDTA and 20% glycerol until use.
After incubation of the microsomes (1 mg protein/ml, final concentration), 0.05 M Tris-HCl buffer, pH 7.5, containing 0.15 m KCl, 10 mM MgC12, 8 mM sodium isocitrate and 0.5 IU of isocitrate dehydrogenase and, incubated with ^14C AA (1 μCi/μmol, 100 μM, final concentration) in the presence of 1 mM NADPH at 30° C. The reaction products were taken at five and ten minutes and extracted into ethyl ether containing 0.05% acetic acid. The AA oxygenase metabolites were separated by HPLC and quantitated by a radiomatic Flo-One β-detector.
The reaction products were taken at 5 and 10 min. and extracted into ethyl ether containing 0.05% acetic acid). The AA oxygenase metabolites were separated by HPLC and quantitated by a radiomatic Flo-One B-detector.

[4] = tested on: AA epoxygenase; details: rats; cited from earlier work

- cross-reactivity relative to 14,15-DHET [1]: 0.05%
SMILES: CCCCC/C=C\C/C=C\C/C=C\C/C=C\CCCC(=O)O [arachidonic acid]
- cross-reaction with anti-14,15-DHET (in words) [1]: did not cross-react

- cross-reactivity relative to 14,15-DHET [1]: 3.30%
SMILES: CCCCC/C=C\CC(O)C(O)C/C=C\C/C=C\CCCC(=O)O (stereo not shown) [11,12-DHET]
- cross-reaction with anti-14,15-DHET [1]: 3.3%

- cross-reactivity relative to 14,15-DHET [1]: 0.02%
SMILES: CCCCC/C=C\C/C=C\C/C=C\CC(O)C(O)CCCC(=O)O (stereo not shown) [5,6-DHET]
- cross-reaction with anti-14,15-DHET (in words) [1]: did not cross-react

- cross-reactivity relative to 14,15-DHET [1]: 3.30%
SMILES: CCCCCC=CCC=CCC(O)C(O)CC=CCCCC(=O)O (stereo not shown) [8,9-DHET, 8,9-dihydroxyeicosatrienoic acid]
- cross-reaction with anti-14,15-DHET [1]: 3.3%

- cross-reactivity relative to 14,15-DHET [1]: 0.05%
SMILES: CCCCC/C=C\C[C@H]1O[C@H]1C/C=C\C/C=C\CCCC(=O)O [11,12-EET]
- cross-reaction with anti-14,15-DHET (in words) [1]: did not cross-react

- cross-reactivity relative to 14,15-DHET [1]: 0.02%
SMILES: CCCCC/C=C\C/C=C\C/C=C\CC1OC1CCCC(=O)O (stereo not shown) [5,6-EET]
- cross-reaction with anti-14,15-DHET (in words) [1]: did not cross-react

- cross-reactivity relative to 14,15-DHET [1]: 1.50%
SMILES: CCCCCC1OC1C/C=C\C/C=C\C/C=C\CCCC(=O)O (stereo not shown) [14,15-EET]
- cross-reaction with anti-14,15-DHET (in words) [1]: did not cross-react

- cross-reactivity relative to 14,15-DHET [1]: 100.00%
SMILES: CCCCCC(O)C(O)CC=CCC=CCC=CCCCC(=O)O (stereo not shown) [14,15-DHET, 14,15-dihydroxyeicosatrienoic acid]

- cross-reactivity relative to 14,15-DHET [1]: 0.40%
SMILES: CCCCC/C=C\C/C=C\CC1OC1C/C=C\CCCC(=O)O (stereo not shown) [8,9-EET]
- cross-reaction with anti-14,15-DHET (in words) [1]: did not cross-react

- cross-reactivity relative to 14,15-DHET [1]: 1.00%
SMILES: CCCCC[C@H](O)/C=C/C=C\C/C=C\C/C=C\CCCC(=O)O [15(S)HETE]
- cross-reaction with anti-14,15-DHET (in words) [1]: did not cross-react

More lines, now with the values behind:

SMILES: CCCCC[C@H](O)/C=C/[C@H]1OC(O)C[C@H](O)[C@@H]1C/C=C\CCCC(=O)O (stereo partly shown) [Thromboxane B2]
- cross-reaction with anti-14,15-DHET (in words) [1]: did not cross-react
- cross-reactivity relative to 14,15-DHET [1]: 0.02%

SMILES: CCCCC[C@H](O)/C=C/[C@@H]1[C@@H](CC(=O)CCCCC(=O)O)[C@@H](O)C[C@H]1O [6-keto-PGF1α]
- cross-reaction with anti-14,15-DHET (in words) [1]: did not cross-react
- cross-reactivity relative to 14,15-DHET [1]: <0.01%

SMILES: C[C@@H]1C[C@H]2[C@@H]3CCC4=CC(=O)C=C[C@]4(C)[C@@]3(F)[C@@H](O)C[C@]2(C)[C@@]1(O)C(=O)CO [DEX, dexamethasone]
- hepatic CYP2C23 protein level [2]: decreased dramatically
- 11,12-EET formed [3]: 73 ng EET formed/mg protein
- 14,15-EET formed [3]: 97 ng EET formed/mg protein

SMILES: CCCCC[C@H](O)/C=C/[C@H]1[C@H](O)CC(=O)[C@@H]1C/C=C\CCCC(=O)O [PGE2]
- cross-reaction with anti-14,15-DHET (in words) [1]: did not cross-react
- cross-reactivity relative to 14,15-DHET [1]: <0.01%

SMILES: CCCCC[C@H](O)/C=C/[C@@H]1[C@@H](C/C=C\CCCC(=O)O)[C@@H](O)C[C@H]1O [PGF2α]
- cross-reaction with anti-14,15-DHET (in words) [1]: did not cross-react
- cross-reactivity relative to 14,15-DHET [1]: <0.01%

SMILES: Clc1ccccc1C(c1ccccc1)(c1ccccc1)n1ccnc1 [clotrimazole]
- blood pressure effect [4]: induced salt-sensitive and clotrimazoledependent hypertension
- urinary excretion of Na+, EETs and DHETs [4]: decreased

SMILES: CCCCC[C@H](O)/C=C/C=C\C/C=C\C=C\[C@@H](O)CCCC(=O)O [5(s)15(S)DiHETE]
- cross-reaction with anti-14,15-DHET (in words) [1]: did not cross-react
- cross-reactivity relative to 14,15-DHET [1]: 0.20%
